Measured values reported in patent publication US11691962B2 (eXIthera Pharmaceuticals, Inc., priority 2018, dated 2023).

Biological target: Factor XIa (Homo sapiens (Human), UniProt P03951)
Test: Factor XIa enzyme inhibition assay (dose response, fluorogenic AMC substrate)
Assay type: biochemical
Conditions: read-out: hFXIa IC50
Method in brief: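 Human FXIa at 0.25 nM final with 50 μM final PyroGlu-Pro-Arg-AMC in 20 mM Hepes pH 7.4, 150 mM NaCl, 0.02% Tween 20. Two-fold serial compound dilutions; fluorescence read every minute for 30 min at 30° C. IC50 from a four-parameter Hill fit.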

Factor XIa, sequence (P03951 388-625): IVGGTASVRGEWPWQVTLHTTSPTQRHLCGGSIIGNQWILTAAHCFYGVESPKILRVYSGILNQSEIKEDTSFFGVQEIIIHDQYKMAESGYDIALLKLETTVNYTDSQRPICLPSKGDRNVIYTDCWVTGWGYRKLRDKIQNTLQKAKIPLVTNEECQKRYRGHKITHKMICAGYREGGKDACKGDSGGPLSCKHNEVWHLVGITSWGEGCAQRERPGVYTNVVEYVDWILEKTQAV
Factor XIa, sequence (P03951 19-387 partner): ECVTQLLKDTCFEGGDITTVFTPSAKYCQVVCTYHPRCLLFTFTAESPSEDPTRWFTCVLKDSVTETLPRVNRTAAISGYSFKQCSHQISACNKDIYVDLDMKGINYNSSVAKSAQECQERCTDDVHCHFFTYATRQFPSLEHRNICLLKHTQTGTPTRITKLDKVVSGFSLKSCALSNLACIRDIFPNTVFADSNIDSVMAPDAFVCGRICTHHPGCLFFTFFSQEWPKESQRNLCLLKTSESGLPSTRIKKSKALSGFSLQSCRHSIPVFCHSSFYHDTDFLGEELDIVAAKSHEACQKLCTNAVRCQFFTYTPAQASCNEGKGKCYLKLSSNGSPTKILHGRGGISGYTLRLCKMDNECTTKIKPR

IC50	SMILES
0.01 to 0.1 µM	CC[C@@H](NC(=O)N1C(=O)[C@H](Cc2cc(C)nc(N)c2)[C@H]1C(=O)N(C)c1cnn(C)c1)c1ccc(F)cc1F [Compound 1-188, (2S,3R)-3-((2-amino-6-methylpyridin-4-yl)methyl)-N2-(1-methyl-1H-pyrazol-4-yl)-N1-((R)-1-(2,4-difluorophenyl)propyl)-N2-methyl-4-oxoazetidine-1,2-dicarboxamide]
0.01 to 0.1 µM	CC[C@@H](NC(=O)N1C(=O)[C@H](Cc2cc(C)nc(N)c2)[C@H]1C(=O)N(C)c1cnn(C)c1)c1cc(F)cc(F)c1 [Compound 1-189, (2S,3R)-3-((2-amino-6-methylpyridin-4-yl)methyl)-N2-(1-methyl-1H-pyrazol-4-yl)-N1-((R)-1-(3,5-difluorophenyl)propyl)-N2-methyl-4-oxoazetidine-1,2-dicarboxamide]
< 0.01 µM	CC[C@@H](NC(=O)N1C(=O)[C@H](Cc2cc(C)nc(N)c2)[C@H]1C(=O)N(C)c1cnn(C)c1)c1cccc(C)c1F [Compound 1-190, (2S,3R)-3-((2-amino-6-methylpyridin-4-yl)methyl)-N2-(1-methyl-1H-pyrazol-4-yl)-N1-((R)-1-(2-fluoro-3-methylphenyl)propyl)-N2-methyl-4-oxoazetidine-1,2-dicarboxamide]
0.01 to 0.1 µM	CC[C@@H](NC(=O)N1C(=O)[C@H](Cc2cc(C)nc(N)c2)[C@H]1C(=O)N(C)c1cnn(C)c1)c1cccc(F)c1C [Compound 1-191, (2S,3R)-3-((2-amino-6-methylpyridin-4-yl)methyl)-N2-(1-methyl-1H-pyrazol-4-yl)-N1-((R)-1-(3-fluoro-2-methylphenyl)propyl)-N2-methyl-4-oxoazetidine-1,2-dicarboxamide]
< 0.01 µM	CC[C@@H](NC(=O)N1C(=O)[C@H](Cc2ccnc(N)c2)[C@H]1C(=O)N(C)c1nccn1C)c1ccc(C)c(F)c1F [Compound 1-192, (2S,3R)-3-((2-aminopyridin-4-yl)methyl)-N2-(1-methyl-1H-imidazol-2-yl)-N1-((R)-1-(2,3-difluoro-4-methylphenyl)propyl)-N2-methyl-4-oxoazetidine-1,2-dicarboxamide]
< 0.01 µM	CC[C@@H](NC(=O)N1C(=O)[C@H](Cc2ccnc(N)c2)[C@H]1C(=O)N(C)c1nccn1C)c1cc(C)c(F)c(C)c1 [Compound 1-195, (2S,3R)-3-((2-aminopyridin-4-yl)methyl)-N2-(1-methyl-1H-imidazol-2-yl)-N1-((R)-1-(3,5-dimethyl-4-fluorophenyl)propyl)-N2-methyl-4-oxoazetidine-1,2-dicarboxamide]
< 0.01 µM	CC[C@@H](NC(=O)N1C(=O)[C@H](Cc2ccnc(N)c2)[C@H]1C(=O)N(C)c1nccn1C)c1ccc(C)c(F)c1C [Compound 1-196, (2S,3R)-3-((2-aminopyridin-4-yl)methyl)-N2-(1-methyl-1H-imidazol-2-yl)-N1-((R)-1-(2,4-dimethyl-3-fluorophenyl)propyl)-N2-methyl-4-oxoazetidine-1,2-dicarboxamide]
< 0.01 µM	CC[C@@H](NC(=O)N1C(=O)[C@H](Cc2ccnc(N)c2)[C@H]1C(=O)N(C)c1ccn(C)n1)c1ccc(C)c(F)c1F [Compound 1-201, (2S,3R)-3-((2-aminopyridin-4-yl)methyl)-N2-(1-methyl-1H-pyrazol-3-yl)-N1-((R)-1-(2,3-difluoro-4-methylphenyl)propyl)-N2-methyl-4-oxoazetidine-1,2-dicarboxamide]
< 0.01 µM	CC[C@@H](NC(=O)N1C(=O)[C@H](Cc2ccnc(N)c2)[C@H]1C(=O)N(C)c1ccnn1C)c1ccc(C)c(F)c1F [Compound 1-202, (2S,3R)-3-((2-aminopyridin-4-yl)methyl)-N2-(1-methyl-1H-pyrazol-5-yl)-N1-((R)-1-(2,3-difluoro-4-methylphenyl)propyl)-N2-methyl-4-oxoazetidine-1,2-dicarboxamide]
< 0.01 µM	CC[C@@H](NC(=O)N1C(=O)[C@H](Cc2ccnc(N)c2)[C@H]1C(=O)N(C)c1ccn(C)n1)c1cc(C)c(F)c(C)c1 [Compound 1-203, (2S,3R)-3-((2-aminopyridin-4-yl)methyl)-N2-(1-methyl-1H-pyrazol-3-yl)-N1-((R)-1-(3,5-dimethyl-4-fluorophenyl)propyl)-N2-methyl-4-oxoazetidine-1,2-dicarboxamide]
< 0.01 µM	CC[C@@H](NC(=O)N1C(=O)[C@H](Cc2ccnc(N)c2)[C@H]1C(=O)N(C)c1ccnn1C)c1cc(F)c(F)c(F)c1 [Compound 1-204, (2S,3R)-3-((2-aminopyridin-4-yl)methyl)-N2-(1-methyl-1H-pyrazol-5-yl)-N1-((R)-1-(3,4,5-trifluorophenyl)propyl)-N2-methyl-4-oxoazetidine-1,2-dicarboxamide]
< 0.01 µM	CC[C@@H](NC(=O)N1C(=O)[C@H](Cc2ccnc(N)c2)[C@H]1C(=O)N(C)c1ccnn1C)c1cc(C)c(F)c(C)c1 [Compound 1-205, (2S,3R)-3-((2-aminopyridin-4-yl)methyl)-N2-(1-methyl-1H-pyrazol-5-yl)-N1-((R)-1-(3,5-dimethyl-4-fluorophenyl)propyl)-N2-methyl-4-oxoazetidine-1,2-dicarboxamide]
< 0.01 µM	CC[C@@H](NC(=O)N1C(=O)[C@H](Cc2ccnc(N)c2)[C@H]1C(=O)N(C)c1cnn(C)c1)c1cc(C)c(F)c(C)c1 [Compound 1-206, (2S,3R)-3-((2-aminopyridin-4-yl)methyl)-N2-(1-methyl-1H-pyrazol-4-yl)-N1-((R)-1-(3,5-dimethyl-4-fluorophenyl)propyl)-N2-methyl-4-oxoazetidine-1,2-dicarboxamide]
< 0.01 µM	CC[C@@H](NC(=O)N1C(=O)[C@H](Cc2ccnc(N)c2)[C@H]1C(=O)N(C)c1cnn(C)c1)c1ccc(F)c(C)c1F [Compound 1-207, (2S,3R)-3-((2-aminopyridin-4-yl)methyl)-N2-(1-methyl-1H-pyrazol-4-yl)-N1-((R)-1-(2,4-difluoro-3-methylphenyl)propyl)-N2-methyl-4-oxoazetidine-1,2-dicarboxamide]
< 0.01 µM	CC[C@@H](NC(=O)N1C(=O)[C@H](Cc2ccnc(N)c2)[C@H]1C(=O)N(C)c1cnn(C)c1)c1ccc(C)c(F)c1F [Compound 1-208, (2S,3R)-3-((2-aminopyridin-4-yl)methyl)-N2-(1-methyl-1H-pyrazol-4-yl)-N1-((R)-1-(2,3-difluoro-4-methylphenyl)propyl)-N2-methyl-4-oxoazetidine-1,2-dicarboxamide]
< 0.01 µM	CC[C@@H](NC(=O)N1C(=O)[C@H](Cc2ccnc(N)c2)[C@H]1C(=O)N(C)c1nccn1C)c1ccc(C)c(C)c1C [Compound 1-209, (2S,3R)-3-((2-aminopyridin-4-yl)methyl)-N2-(1-methyl-1H-imidazol-2-yl)-N1-((R)-1-(2,3,4-trimethylphenyl)propyl)-N2-methyl-4-oxoazetidine-1,2-dicarboxamide]
< 0.01 µM	CC[C@@H](NC(=O)N1C(=O)[C@H](Cc2ccnc(N)c2)[C@H]1C(=O)N(C)c1nccn1C)c1ccc(F)c(F)c1F [Compound 1-210, (2S,3R)-3-((2-aminopyridin-4-yl)methyl)-N2-(1-methyl-1H-imidazol-2-yl)-N1-((R)-1-(2,3,4-trifluorophenyl)propyl)-N2-methyl-4-oxoazetidine-1,2-dicarboxamide]
< 0.01 µM	CC[C@@H](NC(=O)N1C(=O)[C@H](Cc2ccnc(N)c2)[C@H]1C(=O)N(C)c1nccn1C)c1ccc(F)c(C)c1C [Compound 1-211, (2S,3R)-3-((2-aminopyridin-4-yl)methyl)-N2-(1-methyl-1H-imidazol-2-yl)-N1-((R)-1-(2,3-dimethyl-4-fluorophenyl)propyl)-N2-methyl-4-oxoazetidine-1,2-dicarboxamide]
< 0.01 µM	CC[C@@H](NC(=O)N1C(=O)[C@H](Cc2ccnc(N)c2)[C@H]1C(=O)N(C)c1nccn1C)c1ccc(F)c(F)c1C [Compound 1-212, (2S,3R)-3-((2-aminopyridin-4-yl)methyl)-N2-(1-methyl-1H-imidazol-2-yl)-N1-((R)-1-(3,4-difluoro-2-methylphenyl)propyl)-N2-methyl-4-oxoazetidine-1,2-dicarboxamide]
< 0.01 µM	CC[C@@H](NC(=O)N1C(=O)[C@H](Cc2ccnc(N)c2)[C@H]1C(=O)N(C)c1ccnn1C)c1cccc(F)c1F [Compound 1-213, (2S,3R)-3-((2-aminopyridin-4-yl)methyl)-N2-(1-methyl-1H-pyrazol-5-yl)-N1-((R)-1-(2,3-difluorophenyl)propyl)-N2-methyl-4-oxoazetidine-1,2-dicarboxamide]
< 0.01 µM	CC[C@@H](NC(=O)N1C(=O)[C@H](Cc2ccnc(N)c2)[C@H]1C(=O)N(C)c1ccnn1C)c1ccc(F)c(C)c1 [Compound 1-214, (2S,3R)-3-((2-aminopyridin-4-yl)methyl)-N2-(1-methyl-1H-pyrazol-5-yl)-N1-((R)-1-(4-fluoro-3-methylphenyl)propyl)-N2-methyl-4-oxoazetidine-1,2-dicarboxamide]
< 0.01 µM	CC[C@@H](NC(=O)N1C(=O)[C@H](Cc2ccnc(N)c2)[C@H]1C(=O)N(C)c1ccnn1C)c1ccc(F)c(F)c1 [Compound 1-215, (2S,3R)-3-((2-aminopyridin-4-yl)methyl)-N2-(1-methyl-1H-pyrazol-5-yl)-N1-((R)-1-(3,4-difluorophenyl)propyl)-N2-methyl-4-oxoazetidine-1,2-dicarboxamide]
< 0.01 µM	CC[C@@H](NC(=O)N1C(=O)[C@H](Cc2ccnc(N)c2)[C@H]1C(=O)N(C)c1ccnn1C)c1ccc(C)c(F)c1 [Compound 1-216, (2S,3R)-3-((2-aminopyridin-4-yl)methyl)-N2-(1-methyl-1H-pyrazol-5-yl)-N1-((R)-1-(3-fluoro-4-methylphenyl)propyl)-N2-methyl-4-oxoazetidine-1,2-dicarboxamide]
< 0.01 µM	CC[C@@H](NC(=O)N1C(=O)[C@H](Cc2ccnc(N)c2)[C@H]1C(=O)N(C)c1ccnn1C)c1cc(F)ccc1F [Compound 1-217, (2S,3R)-3-((2-aminopyridin-4-yl)methyl)-N2-(1-methyl-1H-pyrazol-5-yl)-N1-((R)-1-(2,5-difluorophenyl)propyl)-N2-methyl-4-oxoazetidine-1,2-dicarboxamide]
